The target in the series is APOL1. The following applies: ASO.

Where “and” joins values, the source holds several entries; their conditions need not be identical. Equal entries are not always repeated. After the bases stand the sugars from the 5' end (letter, count) and the backbone: PS all phosphorothioate, else s phosphorothioate and o phosphodiester by linkage. Methylation of C is not given here. e = 2'-O-(2-methoxyethyl) (MOE); k = constrained ethyl (cEt); d = 2'-deoxy (DNA)

For GTTATGAAATTATTGG (sugars k4 d9 k3, PS), the target mRNA inhibition is, setting by setting: (A431, 0.0625 µM) 58% and 42%; (A431, 0.25 µM) 87% and 73%; (A431, 1 µM) 95% and 87% and 97%.
AATGAACGCAATGCTG (sugars k4 d9 k3, PS): the target mRNA inhibition amounted to 35% (A431, 0.0625 µM); 50% (A431, 0.25 µM); 75% (A431, 1 µM).
“AGTATTGTTTTTGTGG (sugars kkddddkekekkdddd, PS)” showed a target mRNA inhibition (A431, 2 µM) of 66%.
Sequence “GGTTCAAAAGCAGCAT (sugars k2 d4 e3 k2 d5, PS)” came in with a target mRNA inhibition (A431, 0.0156 µM) of 21%; a target mRNA inhibition (A431, 0.0625 µM) of 60%; a target mRNA inhibition (A431, 0.25 µM) of 86%; a target mRNA inhibition (A431, 1 µM) of 94%; a target mRNA inhibition (A431, 2 µM) of 95%.
As to “ACACATCATTGGGTTA (sugars kkkddddkekeddddd, PS)”, the target mRNA inhibition (A431, 2 µM) turned out to be 58%.
The same measure, in the same setting: under “TGAAGATTGGCTCTGG (sugars kkkddddkekeddddd, PS)” stands 54%; under “TTCTATTAGAGGGCTA (sugars kekddddeekkddddd, PS)”, 94%.
As for GTTGTCCAGAGCTTTA (sugars k4 d9 k3, PS), the target mRNA inhibition was 56% (A431, 0.0625 µM); 72% (A431, 0.25 µM); 79% (A431, 1 µM).
As for “TTCTCATGGTACAGGA (sugars kkddddkdkdkddddd, PS)”, the target mRNA inhibition (A431, 2 µM) amounted to 89%.
The same measure, in the same setting: under “TGAAGATTGGCTCTGG (sugars k2 d4 e3 k2 d5, PS)” stands 82%; under “TTTAAACTCAGGTGAC (sugars kkddddkekekkdddd, PS)”, 16%.
Consider AGTATTGCCAGCTAAG (sugars k4 d9 k3, PS), for which the target mRNA inhibition came to 63% (A431, 0.0625 µM); 89% (A431, 0.25 µM); 97% (A431, 1 µM).
In the case of “GTGTTATATTTGATCC (sugars kkkddddkekeddddd, PS)”, the target mRNA inhibition by setting is: (A431, 0.0156 µM) 24%; (A431, 0.04 µM) 50%; (A431, 0.0625 µM) 66%; (A431, 0.25 µM) 89%; (A431, 1 µM) 95%; (A431, 2 µM) 96%.
For the sequence TGTTATCCTCAAGCTC (sugars k4 d9 k3, PS), the target mRNA inhibition (A431, 0.0625 µM) was 37% and 17%.
With GTAAGTGCAACCAATC (sugars k4 d9 k3, PS), the target mRNA inhibition runs as follows: (A431, 0.0625 µM) 75%; (A431, 0.25 µM) 93%; (A431, 1 µM) 99%.
The matching figures for GGTTCAAAAGCAGCAT (sugars k4 d9 k3, PS): 78%, 91% and 95%.
Regarding “GGCAGTTTTGTAAGTG (sugars kkddddkekekddddd, PS)”, for the setting “A431, 2 µM”, the target mRNA inhibition is 65%.
Still for that read-out and setting: with “GGCATTCAGAATTTCC (sugars kkddddekekeddddd, PS)” the figure was 93%; with “AACGCAATGCTGACTT (sugars k2 d4 e3 k2 d5, PS)”, 82%; with “GCTTTAAACTCAGGTG (sugars kekddddeekkddddd, PS)”, 93%.
CAGTACAGAGCAGGAT (sugars k4 d9 k3, PS): the target mRNA inhibition (A431, 0.0625 µM) is 59%; the target mRNA inhibition (A431, 0.25 µM) worked out at 82%; the target mRNA inhibition (A431, 1 µM) worked out at 94%.
In turn, “CGCAATGCTGACTTGG (sugars kkddddkekekddddd, PS)” displayed a target mRNA inhibition (A431, 2 µM) of 83%.
Turning to “TGAGTATTGTTTTTGT (sugars k2 d4 e3 k2 d5, PS)”, where the note is “A431, 2 µM”, the target mRNA inhibition came to 87%.
Regarding GAACATTGAAACACCA (sugars k4 d9 k3, PS), the target mRNA inhibition came to 39% (A431, 0.0625 µM); 70% (A431, 0.25 µM); 89% (A431, 1 µM).
Consider “GGTTATGAAATTATTG (sugars kkkddddkekeddddd, PS)”, for which the target mRNA inhibition (A431, 2 µM) stood at 88%.
Turning to “GTTATGAAATTATTGG (sugars kkddddkekekkdddd, PS)”, the target mRNA inhibition (A431, 2 µM) amounted to 86%.

The values are drawn from the OligoGym collection.
